This is an account of results in patent US20220257782A1, “PEPTIDE THERAPEUTICS FOR AUTOIMMUNE DISEASES AND INFLAMMATORY DISEASES” (GENESEN CO., LTD., priority 2019, published 2022).

For one series, the system named is RAW264.7 cells. In words: Cell viability assay (MTT/MTS), RAW264.7 cells. In kind it is cell-based, mouse. The following applies: concentration of 50 μM or below; FIG. 2B. On the procedure: (§1) HEK-BLUE™ hTLR4 cells were dispensed at a density of 5×10^4 cells/well, and RAW264.7 cells and THP-1 cells were dispensed thereinto at a density of 2×10^5 cells/well. All cells were cultured overnight in 96-well plates (BD Biosciences, San Jose, Calif., USA). Cell viability was determined using colorimetric […] (MTT) assay (Sigma-Aldrich) and/or MTS (3-(4,5-dimethylthiazol-2-yl)-5-(3-carboxymethoxyphenyl)-2-(4-sulfophenyl)-2H-tetrazolium) (Promega Madison, Wis., USA), which was performed as described previously (Kwon, H. K. et al., Toxicological sciences: an official journal of the Society of Toxicology 148, 204-219 (2015)).

Another series deals with THP-1 cells. In words: Cell viability assay (MTT/MTS), THP-1 cells. In kind it is cell-based, human. The conditions noted are these: FIG. 2C. The method, then: as §1
A further series deals with HEK-Blue™ hTLR4 cells. In words: Cell viability assay (MTT/MTS), HEK-BLUE hTLR4 cells. Type of series: cell-based, human. The conditions noted are these: FIG. 2A. On the procedure:
as §1

The test system of series [1] is IMQ-induced psoriasis in C57BL/6 mice. In words: Imiquimod-induced psoriasis mouse model. In kind it is in vivo. The following applies: FIG. 5D. The method, then: 6-7 week old C57BL/6 mice were purchased from Orient Bio Inc. (Seongnam, Korea). The mice were housed under specific pathogen-free conditions and provided ad libitum with a standard laboratory diet (STD). All the animal experiments were approved by the Institutional Animal Care and Use Committee (IACUC) of Ajou University (Approval No. 2017-0002). 62.5 mg of ALDARA™ cream (including 5% IMQ; Aldara, 3M Pharmaceutical LLC.) was applied for five consecutive days, resulting in symptoms similar to psoriasis. The normal group was not treated with IMQ but only injected with PBS. […] Factors such as erythema, scaling, wrinkles, and thickening were independently scored from 0 to 4: 0, none; 1, a little; 2, middle; 3, significant; 4, very prominent. Erythema, scaling, and thickness were scored under the close supervision of an experienced researcher. […]
A skin sample obtained from the dorsal lesion of each mouse was fixed in 4% paraformaldehyde solution, embedded in paraffin, and sectioned at a thickness of 7 μm on a glass slide. […] The thickness of the skin was measured using a Leica DMi8 fluorescence microscope which utilizes a Leica LAS X Hardware Configurator. IMQ-mediated inflammation in the skin was evaluated using a mouse-specific HRC/DAB Detection IHC Kit (Abcam, Cat. No. AB64259) with primary antibodies recognizing CD68, CD4, and IL-17. […]

In a further series the target is T1, TLR4 (Mus musculus, UniProt Q9QUK6).
T1 construct: endogenous in cells; host or cells: RAW264.7
T1 sequence (Q9QUK6 26-835): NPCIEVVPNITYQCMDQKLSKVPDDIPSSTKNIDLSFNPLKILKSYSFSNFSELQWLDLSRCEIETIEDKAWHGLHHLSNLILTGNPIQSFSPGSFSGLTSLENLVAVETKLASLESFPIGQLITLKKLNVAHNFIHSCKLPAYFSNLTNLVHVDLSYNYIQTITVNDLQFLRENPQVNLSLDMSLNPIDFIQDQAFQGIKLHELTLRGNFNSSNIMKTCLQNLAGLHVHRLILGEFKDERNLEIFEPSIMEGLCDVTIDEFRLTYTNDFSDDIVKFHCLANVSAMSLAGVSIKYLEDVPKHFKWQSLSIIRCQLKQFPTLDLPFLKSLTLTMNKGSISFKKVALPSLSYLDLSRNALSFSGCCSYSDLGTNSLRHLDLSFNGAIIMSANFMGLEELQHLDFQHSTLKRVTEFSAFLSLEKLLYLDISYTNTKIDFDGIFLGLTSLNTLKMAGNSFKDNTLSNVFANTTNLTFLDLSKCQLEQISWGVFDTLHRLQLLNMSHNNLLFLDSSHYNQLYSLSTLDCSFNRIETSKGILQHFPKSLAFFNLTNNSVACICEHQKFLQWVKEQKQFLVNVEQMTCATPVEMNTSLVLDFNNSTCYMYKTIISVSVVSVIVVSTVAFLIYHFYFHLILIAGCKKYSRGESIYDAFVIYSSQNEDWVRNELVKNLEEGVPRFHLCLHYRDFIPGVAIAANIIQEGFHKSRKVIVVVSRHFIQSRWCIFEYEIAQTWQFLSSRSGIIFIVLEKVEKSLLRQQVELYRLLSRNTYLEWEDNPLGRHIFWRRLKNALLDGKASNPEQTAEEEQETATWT
T1 sequence (Q9JHF9 19-160 partner): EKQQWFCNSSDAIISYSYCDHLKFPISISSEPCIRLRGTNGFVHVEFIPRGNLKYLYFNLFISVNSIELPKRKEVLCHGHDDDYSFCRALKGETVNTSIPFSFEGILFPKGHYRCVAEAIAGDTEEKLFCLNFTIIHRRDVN
The series can be described thus: Cytokine secretion (ELISA) in LPS-stimulated RAW264.7 cells. The following applies: FIG. 2E. Type of series: cell-based. On the procedure:
THP-1-derived macrophages and RAW264.7 cells were dispensed into 96-well plates (BD Biosciences) at a density of 2×10^5 cells/well and cultured overnight. After 24 hours of treatment, IL-6 secretion was analyzed using Mouse IL-6 ELISA MAX™ Deluxe (BioLegend, San Diego, Calif., USA), and TNF-α production was evaluated using the Mouse TNF alpha ELISA Ready-SET-GO!® kit (eBioscience, San Diego, Calif., USA). Then, the plate was analyzed at each wavelength using a microplate spectrophotometer system (Molecular Devices).
A general note: ELISA stands for enzyme-linked immunosorbent assay.

Ends that are not written are not given here.

In the case of RQIKIWFQNRRMKWKKPWCKYQMLQALT [MIP2], the “cytotoxic effect in RAW264.7 cells” value with RAW264.7 cells is given as “absence of a cytotoxic effect”. For the same substance, the “toxicity in THP-1 cells” value in the series with THP-1 cells is reported as “does not show toxicity”. For the same substance, the “toxicity in HEK-Blue hTLR4 cells” value with HEK-Blue™ hTLR4 cells was “do not show toxicity”. Further, in series [1], the body weight result is “no significant difference compared to PBS- and MTX-treated mice”.

As for PFVYLI (cell penetrating peptide), in the series with TLR4, the “inhibitory effect on LPS-stimulated RAW 264.7 cells” value was “did not show any inhibitory effect”.
